Source: patent US20100040568A1, “Steroidal compounds as melanogenesis modifiers and uses thereof” (SkinMedica, Inc., priority 2008, published 2010)

Experiments:
[1] = target: T1, tyrosinase (Mus musculus, UniProt P11344); experiment: Tyrosinase activity assay on melan-a cell lysates; assay type: biochemical, murine; conditions: for direct inhibition of tyrosinase enzymatic activity: melan-a cell lysates (10 μg) pre-incubated with conessine 10 μM for 30 minutes
T1 construct: endogenous in cells; host or cells: melan-a cells (murine melanocytes), cell lysate
T1 sequence (P11344 19-533): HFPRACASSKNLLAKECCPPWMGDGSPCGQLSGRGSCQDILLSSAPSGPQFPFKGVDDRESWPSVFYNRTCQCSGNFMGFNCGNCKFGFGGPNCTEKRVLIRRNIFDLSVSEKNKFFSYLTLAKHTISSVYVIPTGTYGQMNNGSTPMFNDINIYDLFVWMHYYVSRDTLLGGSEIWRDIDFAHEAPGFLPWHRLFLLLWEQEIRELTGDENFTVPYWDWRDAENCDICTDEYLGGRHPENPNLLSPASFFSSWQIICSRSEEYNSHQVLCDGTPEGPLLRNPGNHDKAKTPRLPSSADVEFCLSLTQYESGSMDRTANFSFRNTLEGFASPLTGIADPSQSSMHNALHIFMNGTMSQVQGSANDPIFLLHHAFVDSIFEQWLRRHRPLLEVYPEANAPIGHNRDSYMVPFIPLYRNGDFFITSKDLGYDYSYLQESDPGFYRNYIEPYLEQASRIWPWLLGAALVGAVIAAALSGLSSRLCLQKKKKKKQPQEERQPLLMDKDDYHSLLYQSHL
Method: The effect of conessine on tyrosinase activity was studied in vitro using melan-a cell lysates.
In one example, melan-a cell lysates (10 μg) were pre-incubated with either diluent, conessine (10 μM) or phenylthiourea (PTU, 300 μM, a known tyrosinase inhibitor) for 30 minutes at room temperature. Tyrosinase activity assay was performed in triplicate on melan-a cell lysates as previously described (Orlow et al. 1990).

[2] = test system: Tyrosinase gene family proteins; experiment: Immunoblot of tyrosinase gene family proteins in melan-a cells; assay type: cell-based, murine; conditions: various concentrations, 72 hours
Method: Melan-a cells were incubated with various concentrations of conessine for 72 hours. Cell lysates were prepared and separated by 7.5% sodium dodecyl sulfate-polyacrylamide gel and transferred to Immobilon-P membranes. Tyrosinase gene family proteins were detected with antibodies against each protein.

[3] = test system: Microphthalmia transcription factor (MITF); experiment: Level of microphthalmia transcription factor in melan-a cells; assay type: cell-based, murine
Method: Melan-a cells were incubated with various concentrations of conessine for 72 hours. Cell lysates were prepared and separated by 7.5% sodium dodecyl sulfate-polyacrylamide gel and transferred to Immobilon-P membranes. Tyrosinase gene family proteins were detected with antibodies against each protein. […] Microphthalmia transcription factor (MITF) is a transcription factor that regulates the expression of tyrosinase gene family. […] Thus, increased levels of tyrosinase gene family proteins with conessine treatment are not due to increased MITF expression in melan-a cells.

[4] = test system: MEL-A; experiment: MTT cell viability of treated MelanoDerm tissue; assay type: cell-based, human; conditions: 0.036% topical
Method: Conessine and Licorice extract were dissolved in 30% ethanol: 70% propylene glycol (PEG) to a final concentration of 0.036% (0.36 mg/ml). A 25 μl aliquot of each compound was applied topically to the Asian MelanoDerm™ tissue (MEL-A) on Days 0, 1, 3, 6, 8, 10 and 13. The MelanoDerm™ tissues were fed every other day with 5 ml fresh NMM-113. Prior to each application, the tissues were washed with 1 ml PBS to remove any residual test compound. Tissues were fixed on Days 13 and 16 for microscopic analysis and histological evaluation. In addition, duplicate tissues were frozen on Days 13 and 16 for melanin assay. 30% ethanol: 70% PEG was used as negative control. Cell viability was measured in accordance with the manufacturer's instructions using the MTT assay kit (MatTek Corp., Ashland, Mass. 01721). One MEL-A tissue from each condition was harvested on day 2 and 7, and MTT assay was performed.

CC1C2CCC3C4CC=C5CC(N(C)C)CCC5(C)C4CCC32CN1C (stereo not drawn) [Compound 1, Conessine]
tyrosinase activity of lysates of pre-treated cells ([1]; cells pre-incubated with conessine for 72 hrs before harvesting): No obvious difference in tyrosinase activity | direct inhibition of tyrosinase enzymatic activity ([1]; listed as Conessine): did not directly inhibit tyrosinase activity | direct inhibition of tyrosinase enzymatic activity ([1]; listed as conessine): does not directly inhibit tyrosinase enzymatic activity | cellular levels of tyrosinase family proteins [2]: increases cellular levels of tyrosinase family proteins in a dose-dependent manner | level of MITF [3]: no notable effect | cytotoxicity of treated tissue [4]: no detectable cytotoxicity
